Source: patent US8273344B2, “Recombinant adeno-associated virus expressing human antisense gene CyP2J2 and its preparation methods” (priority 2004, dated 2012)
Where “and” joins values, the source holds several entries; their conditions need not be identical. Identical values can stand only once.

Legend:
tumor = assay: Growth of tumor under EET blocker (FIG. 16); settings: FIG. 16, 100 nmol/L
transplantation tumor = assay: Growth of transplantation tumor under epoxygenase inhibitor (FIG. 17); type: in vivo; settings: FIG. 17, without joint use of 5-fluorouracil
[1] = tested on: four different kinds of tumor cell lines; assay: TNFα-induced apoptosis of tumor cells (DNA ladder, acridine orange staining, flow cytometry); type: cell-based, human; settings: for total apoptotic rate: flow cytometry; for number of apoptotic cells (acridine orange / ethidium bromide staining): fluorescent microscope, vs control group
Description: A week later, TNFα is used to induce the apoptosis of tumor cells. The apoptosis is measured using different methods. […] Thus, the EETs and epoxygenase gene resist the apoptosis of cancer cells induced by TNF-α. After PI staining and Annexin V-FITC/PI dobule staining separatively, the total apoptosis rate and early apoptosis rate of cells are calculated using flow cytometry.

Akt, Bcl-2, Bcl-xL, Bax = type: cell-based
four tumor cell lines = assay: Proliferation of four kinds of tumor cells in vitro; type: cell-based, human; settings: FIG. 15, dose dependence
Text: The epoxygenase metabolizes arachidonic acid to yield endogenous epoxyeicosatrienoic acids. Thus, the EETs concentration is increased indirectly. This can directly verity that the function of CYP epoxygenase for promoting proliferation of tumor cells.

[2] = tested on: Tca-8113, A549, Ncl-H446, and HepG2 cell lines; assay: Migration and invasion of tumor cells in modified Boyden chamber; type: cell-based, human; settings: 5 h, P<0.01
Description: The migration of epithelial cells in the modified Boyden chamber is measured using a conventional method. A polycarbonate filter membrane of […] is coated at 4° C. for 24 h using collagen IV (10 μg/mL) and Matrigel (11 μg/filter). The Tca-8113, A549, Ncl-H446, and HepG2 cell lines are washed with DMEM culture solution to 2×10^6/mL. 200 μL of DMEM containing 5% FBS is added to the low part of the Boyden chamber as a chemoattractant, and followed by covering a polycarbonate filter membrane. 800 μL of a cell suspension is added to the upper part of the Boyden chamber, cultured at 37° C. at 5% CO2 for 5 h. The device is disassembled and the membrane is collected. The cells are cleaned off, and the membrane is fixed with carbinol and stained with hematoxylin. Five fields of vision per membrane are observed under a 200× microscope. Subsequently, the number of migrating cells is calculated.

[3] = EET pretreatment experiment, control 28.15%±4.7

Compound: CCCCCC1OC1C/C=C\C/C=C\C/C=C\CCCC(=O)O (centres unmarked) [14, 15-EET]
- growth of tumor (tumor): can inhibit

Compound: C#CCCCCCCCCCCCCCCCC(=O)O [17-ODYA]
- growth of transplantation tumor (transplantation tumor): can inhibit
- total apoptotic rate [1, 3]: 52.65%±3.6
- number of apoptotic cells (acridine orange / ethidium bromide staining) [1]: large
- apoptosis of tumor cells (in words) ([1]; induced by TNF-α): promotes significantly
- total apoptotic rate ([1]; transfection experiment, control 20.15%±3.5): 33.51%±6.1
- expression of antiapoptosis protein Bcl-2 and Bcl-xL (Akt, Bcl-2, Bcl-xL, Bax): completely opposite effect
- expression of apoptosis protein Bax (Akt, Bcl-2, Bcl-xL, Bax): completely opposite effect
- phosphorylation of Akt (Akt, Bcl-2, Bcl-xL, Bax): completely opposite effect
- growth of tumor cells (four tumor cell lines): dose-dependently inhibits
- ability of migrating of cells relative to basal state [2]: about 60 % of basal state

Compound: epoxyeicosatrienoic acids [EETs]
- total apoptotic rate [1, 3]: 14.94%±3.5 and 11.72%±4.2 and 12.89%±2.7
- formation of DNA ladder ([1]; TNFα-induced apoptosis): decrease significantly
- number of apoptotic cells (acridine orange / ethidium bromide staining) [1]: significantly less
- expression of antiapoptosis protein Bcl-2 and Bcl-xL (Akt, Bcl-2, Bcl-xL, Bax): increase
- expression of apoptosis protein Bax (Akt, Bcl-2, Bcl-xL, Bax): decrease
- phosphorylation of Akt (Akt, Bcl-2, Bcl-xL, Bax): promote
